Where a SMILES comes first, the peptide text is derived from it.

On to `Cn1ccc(=NC(=O)c2ccccc2)cc1`, for which, under “basic group”, the pKa (as a rule, the pH at which an ionisable group is half protonated) stood at 9.89.
Turning to `[O-]c1ccnc([O-])c1`, the pKa (basic group) worked out at 13.
Take `Oc1ccc2ccnnc2c1`: the pKa (acidic group) came out at 7.56 and the pKa (basic group) is 3.31.
Under “basic group”, `Cc1cccnc1N` yielded a pKa of 7.24.
Same read-out and setting: with `CN(CO)c1ccc(Cl)cc1` the figure was 3.02.
Molecule `CC1CN(C)CCN1C` (stereo unspecified) came in with a pKa (basic group) of 8.36.
For the setting “basic group”, `C[n+]1cccnc1[O-]` came in with a pKa of 2.5.
The molecule `CC(=O)CC(N)=O` yielded a pKa (acidic group) of 10.4.
With `CNCCN(C)CCNC`, the pKa (basic group) was 10.4.
For `OCCCc1ccccn1`, the pKa (basic group) is 5.71.
The same measure, in the same setting: with `CN1CCCN(C)c2cccc3cccc1c23` the figure was 10.3.
Where the note is “acidic group”, `CCC(=O)c1cc(C(C)=O)n[nH]1` registered a pKa of 9.05.
Same read-out and setting: with `CC(=O)CC(=O)C(F)(F)F` the figure was 6.09.
The same measure, in the same setting: with `Cc1nc(NS(=O)(=O)c2ccc(N)cc2)sc1C` the figure was 6.97.
Turning to `CC(C=C(c1cccs1)c1cccs1)N1CCCCCC1` (stereo unspecified), the pKa (basic group) was 7.96.
Under “acidic group”, `O=P(O)(O)C([NH2+]Cc1ccc[nH+]c1)c1ccccc1O` (stereo unspecified) gave a pKa of 2.28.
The same measure, in the same setting: with `[O-]c1cccc2c1-c1c(O)cccc1-2` the figure was 11.
As to `CCOCCNc1ccc(Cl)cc1`, the pKa (basic group) was found to be 3.28.
On the same count and under the same terms, with `CC[Si](C)(C)CN` the figure was 10.7; with `C[C@H](N)C(=O)[O-]`, 9.72.
Under “acidic group”, `CC(=O)C(C(C)=O)c1ccccc1` displayed a pKa of 9.32.
Turning to `[NH3+]CCCCCCNC(=S)S`, the pKa (acidic group) amounted to 2.95.
Molecule `SCCN(Cc1ccccc1)Cc1ccccc1` showed a pKa (basic group) of 7.62.
On the same count and under the same terms, with `C=CCOc1nc(N)nc(N)n1` the figure was 3.43; with `CCOc1ccc2[nH]cnc2c1`, 5.57.
For the molecule `C(COCCc1nnn[nH]1)OCCc1nnn[n-]1`, the pKa (acidic group) was 5.37.
For the molecule `O=C(NBr)c1ccccc1`, the pKa (acidic group) was 7.3.
As for `C[n+]1c([O-])ccnc1[O-]`, the pKa (basic group) is 9.94.
Same read-out and setting: with `CCN(CC)CCN` the figure was 9.93.
Same read-out and setting: with `CCCCCCn1ccnc1` the figure was 7.2; with `CN(C)C1CC(C)(C)[NH2+]C(C)(C)C1`, 7.67.
In the case of `CC(=O)/C(=N\O)C(C)C`, the pKa (acidic group) worked out at 9.5.
Under “basic group”, `O=C([O-])[C@@H]1CCCN1C(=O)[C@@H]1CCCN1` (H-Pro-Pro-OH) showed a pKa of 9.27.
In turn, `CC1(C)CC(=O)CC1=O` showed a pKa (acidic group) of 4.2.
Turning to `CCOc1cccc(C(=O)O)c1`, the pKa (acidic group) was 4.17. The pKa values of the last two molecules are within 0.2 log units of each other.
`COc1c(Cl)cc(Cl)c([O-])c1C(=O)NC1CCN(C)CC1` returned a pKa (basic group) of 9.12.
As for `Cn1cnc2[nH]c(=O)[nH]c(=S)c21`, the pKa came to 6.8 (acidic group) and 0.3 (basic group).
Consider `CN1CC1`, for which the pKa (basic group) was 7.86.
Take `Nc1nc(N)c2cnn(-c3ccccc3)c2n1`: the pKa (basic group) was determined as 4.49.
Regarding `CN(C)C(=O)CS`, under “acidic group”, the pKa was found to be 8.1.
Consider `CC1=NCCc2c1[nH]c1ccc([N+](=O)[O-])cc21`, for which the pKa (acidic group) was 12.6 and the pKa (basic group) is 6.37.
Take `C1CN(CC[NH+]2CCOCC2)CCO1`: where the note is “basic group”, the pKa was found to be 3.63.
Take `O=C([O-])C1CCN1` (stereo unspecified): the pKa (basic group) came to 9.54.
Where the note is “basic group”, `Cc1ccc2c(c1)N1CC[NH+]2CC1` yielded a pKa of 2.4.
On the same count and under the same terms, with `CN[C@@H]1C[C@@H]1[NH2+]C` the figure was 3.56.
The molecule `O=C1NC(=O)C2CCC12` (stereo unspecified) gave a pKa (acidic group) of 9.63.
`CC1CCN(O)C1(C)C` (stereo unspecified): the pKa (basic group) is 5.9.
As for `c1ncc2cn[nH]c2n1`, the pKa by setting is: (acidic group) 9.54; (basic group) 2.84.
Molecule `C=C[C@@H]1CNC(=S)O1` registered a pKa (acidic group) of 10.2.
Molecule `NC(=O)CCc1ccccn1` displayed a pKa (basic group) of 5.09.
Molecule `C=C(C)C(=O)OCCNC` returned a pKa (basic group) of 8.96.
Under “acidic group”, `CCN(CC)C(=S)S` returned a pKa of 3.95.
Same read-out and setting: with `Cc1cccc(S(N)(=O)=O)c1` the figure was 9.51.
For the molecule `Cc1cncc[nH+]1`, the pKa (basic group) is -4.89.
Where the note is “basic group”, `COc1ccc(/C=N/c2ncc3nc[nH]c3n2)cc1` returned a pKa of 3.86.
For the setting “acidic group”, `COc1ccc(O)c(=O)cc1` returned a pKa of 7.75.
For the molecule `CN(C)CCOC(c1ccccc1)c1ccc(Br)cc1` (stereo unspecified), the pKa (basic group) stood at 8.64.
Regarding `CC/C=C/C(=O)O`, the pKa (acidic group) turned out to be 4.69.
Molecule `NNC(=O)[C@H](Cc1c[nH]c[nH+]1)NC(=O)OCc1ccccc1` came in with a pKa (basic group) of 2.5.
`O=C(NO)c1cccc2ccccc12` gave a pKa (acidic group) of 7.7.
For the molecule `Cc1ccc(N)cc1`, the pKa (basic group) is 5.04.
On to `Oc1cccc(O)c1`, for which, under “acidic group”, the pKa was 9.56.
The same measure, in the same setting: with `C[n+]1c2ccccc2nc2ccc(O)cc21` the figure was 3; with `C[n+]1cccc2cccc(O)c21`, 6.81.
For the molecule `O=C([O-])C(NCCNC(C(=O)[O-])c1ccccc1[O-])c1ccccc1[O-]` (stereo unspecified), the pKa (basic group) is 11.7.
Still for that read-out and setting: with `COc1cc(C)ncn1` the figure was 3.65.
Molecule `N#CO` showed a pKa (acidic group) of 3.67.
As for `CCCCNCC(=O)Nc1c(C)cccc1C`, the pKa (basic group) is 8.04.
`C[C@H]1CC[C@H]2[C@H](C)CC[C@@H](C(=O)O)[NH+]2C1` registered a pKa (acidic group) of 2.
On to `Cc1cc2c(C)ccnc2c2ncccc12`, for which the pKa (basic group) was found to be 5.71.
Where the note is “acidic group”, `O=C(O)/C(Cl)=N/O` yielded a pKa of 1.5.
Under “basic group”, `Nc1cccc2ncncc12` registered a pKa of 3.57.
In the case of `Oc1c(Cl)ccc(Cl)c1Cl`, the pKa (acidic group) was 6.12.
With `C[NH2+]CC(=O)NCCc1c[nH]cn1`, where the note is “basic group”, the pKa came to 6.77.
Regarding `O=C1OC2C3CC4C2C4(C(=O)O)C13Br` (stereo unspecified), the pKa (acidic group) worked out at 3.5.
Still for that read-out and setting: with `O=C(O)C1(O)CCCCC1` the figure was 4.18; with `COc1ccc(C(=O)O)c(C)c1`, 4.54.
Consider `COc1ccc(S(=O)(=O)NCCN2CCOCC2)c(OC)c1OC`, for which the pKa (basic group) amounted to 6.16.
As for `Cc1ncc(CO)c(C[NH3+])c1O`, the pKa (acidic group) is 8.02 and the pKa (basic group) turned out to be 3.38.
As to `COc1cccc(NS(=O)(=O)c2ccccc2)c1`, the pKa (acidic group) is 7.95.
As to `CC(N)(C(=O)[O-])c1ccccc1` (stereo unspecified), the pKa (basic group) was found to be 9.
Turning to `O=[N+]([O-])CCO`, the pKa (acidic group) stood at 9.4.
For `NC(=O)C(c1ccccc1)c1ccccn1` (stereo unspecified), the pKa (basic group) came out at 3.8.
Same read-out and setting: with `Cn1c2c(s/c1=N\N)CCCC2` the figure was 8.2.
For `C[N+](C)(C)/N=C(/O)c1ccccc1`, the pKa (acidic group) was determined as 4.29.
For `Cn1nc([N+](=O)[O-])nc1NN=O`, the pKa (acidic group) stood at 3.22.
`CN(C)c1cccc([N+](C)(C)C)c1` registered a pKa (basic group) of 2.6.
`C(C[NH2+]CCc1nnn[nH]1)[NH2+]CCc1nnn[nH]1` yielded a pKa (acidic group) of 3.11.
`O=[N+]([O-])c1ccccc1[Se]O` gave a pKa (acidic group) of 10.5.
The molecule `O=[N+]([O-])c1cccc(O)c1` returned a pKa (acidic group) of 8.31.
As for `Cc1cnc(N(C)C)s1`, the pKa (basic group) came to 6.08.
With `Cn1c(=O)c2cn[nH]c2n(C)c1=O`, under “acidic group”, the pKa was determined as 9.26.
In the case of `CCCCCCCCCCCCCCCCCN`, the pKa (basic group) was 10.6.
The molecule `NNC(=O)CS` had a pKa (acidic group) of 8.05.
Same read-out and setting: with `COc1c(C)cc2c(c1C(=O)O)COC2` the figure was 3.13.
Regarding `[NH3+]CCc1ccncc1`, the pKa (basic group) stood at 4.98.
In turn, `CC/C=C/CC1=NC(C(=O)[O-])[C@@H]2SC(C)(C)C(C(=O)[O-])N12` (stereo partly specified) came in with a pKa (basic group) of 7.8.
The same measure, in the same setting: with `N#Cc1ccncc1` the figure was 1.91.
Where the note is “acidic group”, `CC(=O)OO` came in with a pKa of 8.19.
The molecule `Cc1c(C)c(O)c(C)c(C)c1[O-]` showed a pKa (acidic group) of 12.8.
For `COc1ccccc(=O)c1O`, the pKa (acidic group) stood at 8.
For `NC(=O)Nc1ncnc2nc[nH]c12`, the pKa was 9.95 (acidic group) and 2.35 (basic group).
Turning to `COc1nc([N+](=O)[O-])n[nH]1`, the pKa (acidic group) turned out to be 5.35.
Where the note is “acidic group”, `O=Cc1cc(Cl)ccc1O` had a pKa of 7.4.
In the case of `OCc1ccc(O)cc1`, the pKa (acidic group) was determined as 9.82.
The same measure, in the same setting: with `CN(C)c1ccc(O)cc1` the figure was 10.2.
As for `Nc1ccncc1Br`, where the note is “basic group”, the pKa was 7.15.
For the setting “basic group”, `COC(=O)[C@H](Cc1c[nH]cn1)NC(C)=O` came in with a pKa of 6.3.
In the case of `Cc1c(O)cncc1C1CCCCC1`, the pKa reads like this: (acidic group) 10; (basic group) 5.6.
Take `Oc1ccc2cn[nH]c2c1`: under “acidic group”, the pKa was found to be 9.35.
`O=C(CCCN1CCOCC1)c1ccccc1`: the pKa (basic group) came out at 7.26.
In the case of `Oc1c(Cl)cc(Cl)c(Cl)c1C[NH+]1CCOCC1`, under “acidic group”, the pKa is 4.84.
With `Cc1cc(-c2ccccc2)nn2ccnc12`, the pKa (basic group) came out at 4.84.
Regarding `Nc1cc(N2CCOCC2)nc(N)n1`, the pKa was -0.35 (acidic group) and 6.73 (basic group).
Consider `CC(=O)C(C)C(=O)c1ccccc1` (stereo unspecified), for which the pKa (acidic group) was determined as 11.1.
For `CN(C)c1ccc2c(c1)Sc1cc([NH+](C)C)ccc1N2`, where the note is “basic group”, the pKa amounted to 5.27.
Regarding `O=[N+]([O-])/C=C/c1ccc(O)cc1`, the pKa (acidic group) was 7.98.
Under “acidic group”, `CCOC(=O)C1CCCC1=O` (stereo unspecified) yielded a pKa of 10.7.
Consider `Cc1ccc(NCC[NH2+]c2ccc(C)cc2)cc1`, for which, under “basic group”, the pKa is 2.7.
As to `O=[N+]([O-])c1ccc2cc(O)ccc2c1`, where the note is “acidic group”, the pKa was 7.69.
The same measure, in the same setting: with `NS(=O)(=O)c1ccc(P(=O)([O-])O)cc1` the figure was 6.38.
Consider `O=C([O-])C[NH2+]CCc1nnn[nH]1`, for which the pKa (acidic group) turned out to be 4.32.
Same read-out and setting: with `O=c1nc([O-])c2ncn([C@H]3O[C@@H](CO)[C@H](O)[C@@H]3O)c2[nH]1` the figure was 13.
For the molecule `C#CCCCN`, for the setting “basic group”, the pKa turned out to be 10.2.
On the same count and under the same terms, with `COc1cc(S(N)(=O)=O)cc(C(=O)N[C@@H]2C[C@H]3CC[C@@H](C2)N3Cc2ccccc2)c1OC` the figure was 8.87; with `CCC(=O)C(c1ccccc1)(c1ccccc1)C(C)CN1CCOCC1` (stereo unspecified), 7.12; with `N[C@@H](Cc1c[nH]cn1)C(=O)N[C@@H](Cc1c[nH]cn1)C(=O)[O-]`, 7.8.
On to `CC(=O)CC(=S)Nc1cccc(C)c1`, for which the pKa (acidic group) is 7.56.
`CCCCS(=O)O`: for the setting “acidic group”, the pKa was found to be 2.2.
Take `CCCCc1nc(N)c2ncsc2n1`: the pKa (basic group) is 3.49.
Same read-out and setting: with `CN1CC=CC1c1cccnc1` (stereo unspecified) the figure was 7.04.
`COC(=O)c1cc(O)c(O)c(O)c1C[NH+](C)C`: the pKa (acidic group) was 6.8.
The same measure, in the same setting: with `CC(c1cccc(C(F)(F)F)c1)[N+](=O)[O-]` (stereo unspecified) the figure was 6.96.
In the case of `[NH3+]c1ccc(O[C@H]2O[C@@H](C(=O)O)[C@H](O)[C@@H](O)[C@@H]2O)cc1`, the pKa (acidic group) amounted to 3.1.
As to `Nc1ccc2cc3ccc4ccccc4c3nc2c1`, the pKa (basic group) turned out to be 6.72.
In turn, `CCCCNCC(=O)c1ccc(O)cc1` had a pKa (basic group) of 8.55.
Still for that read-out and setting: with `C#CCCN(C)C` the figure was 8.33.
`C/C(=N/O)c1ccc(O)cc1O` returned a pKa (acidic group) of 8.35.

For the origin of these results see the pKa sets of Baltruschat and Czodrowski (2020).
